Data: patent US10954269B2, “Anti-inflammatory tripeptides” (Dr. August Wolff Gmbh & Co. KG Arzneimittel, priority 2013, dated 2021)
[ ]: non-standard residue; d: D form. Aib = CC(C)(N)C(=O)O

Tested on: primary human T-cells
Test: Cytokine secretion on protein level in activated primary human T-cells (13-plex FACS / Luminex, supernatant)
Format: cell-based
How it was run: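 Primary T-cells from peripheral blood of healthy volunteers, or HaCaT cells, were activated with PMA/Ionomycin or IFN-γ for 48 h and treated with tripeptides. Supernatants were collected 48 h and 72 h after stimulation and cytokines (IL-1, IL-2, IL-6, IL-12p70, IL-17, IFN-γ, TNF-α) were measured by 13-plex FACS.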

[1] = primary human T-cells stimulated with IFN-γ, 10^−9M
[2] = primary human T-cells stimulated with IFN-γ, substance 10^−9M
[3] = primary human T-cells stimulated with PBS, 10^−9M
[4] = primary human T-cells stimulated with PBS, substance 10^−9M
[5] = primary human T-cells stimulated with PMA/Ionomycin, 10^−9M
[6] = primary human T-cells stimulated with PMA/Ionomycin, substance 10^−9M

H-Lys-[dP]-Thr-OH [K(D)PT, reference compound]
IL-1 cytokine concentration [1]: 335.73 pg/mL | IL-2 cytokine concentration [1]: 79.24 pg/mL | IL-4 cytokine concentration [1]: 184.31 pg/mL | IL-5 cytokine concentration [1]: 249.7 pg/mL | IL-6 cytokine concentration [1]: 93.02 pg/mL | IL-9 cytokine concentration [1]: 93.74 pg/mL | IL-10 cytokine concentration [1]: 169.54 pg/mL | IL-12p70 cytokine concentration [1]: 895.95 pg/mL | IL-13 cytokine concentration [1]: 72.09 pg/mL | IL-17 cytokine concentration [1]: 204.05 pg/mL | IL-22 cytokine concentration [1]: 22747.7 pg/mL | TNF-α cytokine concentration [1]: 178.65 pg/mL | IL-1 cytokine concentration [2]: 0 pg/mL | IL-2 cytokine concentration [2]: 0 pg/mL | IL-4 cytokine concentration [2]: 0 pg/mL | IL-5 cytokine concentration [2]: 0 pg/mL | IL-6 cytokine concentration [2]: 58.47 pg/mL | IL-9 cytokine concentration [2]: 9.51 pg/mL | IL-10 cytokine concentration [2]: 33.21 pg/mL | IL-12 cytokine concentration [2]: 0 pg/mL | IL-12p70 cytokine concentration [2]: 0 pg/mL | IL-13 cytokine concentration [2]: 0 pg/mL | IL-17 cytokine concentration [2]: 0 pg/mL | IL-22 cytokine concentration [2]: 0 pg/mL | TNF-α cytokine concentration [2]: 0 pg/mL | IFN-γ cytokine concentration [3]: 610.05 pg/mL | IL-1 cytokine concentration [3]: 268.37 pg/mL | IL-2 cytokine concentration [3]: 435.34 pg/mL | IL-4 cytokine concentration [3]: 136.29 pg/mL | IL-5 cytokine concentration [3]: 0 pg/mL | IL-6 cytokine concentration [3]: 92.39 pg/mL | IL-9 cytokine concentration [3]: 102.2 pg/mL | IL-10 cytokine concentration [3]: 126.13 pg/mL | IL-12p70 cytokine concentration [3]: 114.67 pg/mL | IL-13 cytokine concentration [3]: 80.48 pg/mL | IL-17 cytokine concentration [3]: 182.45 pg/mL | IL-22 cytokine concentration [3]: 0 pg/mL | TNF-α cytokine concentration [3]: 160.25 pg/mL | IFN-γ cytokine concentration [4]: 0 pg/mL | IL-1 cytokine concentration [4]: 147.97 pg/mL | IL-2 cytokine concentration [4]: 0 pg/mL | IL-4 cytokine concentration [4]: 0 pg/mL | IL-5 cytokine concentration [4]: 0 pg/mL | IL-6 cytokine concentration [4]: 109.89 pg/mL | IL-9 cytokine concentration [4]: 0 pg/mL | IL-10 cytokine concentration [4]: 159.09 pg/mL | IL-12 cytokine concentration [4]: 0 pg/mL | IL-12p70 cytokine concentration [4]: 0 pg/mL | IL-13 cytokine concentration [4]: 172.66 pg/mL | IL-17 cytokine concentration [4]: 127.21 pg/mL | IL-22 cytokine concentration [4]: 0 pg/mL | INF-α cytokine concentration [4]: 0 pg/mL | TNF-a cytokine concentration [4]: 65.47 pg/mL | TNF-α cytokine concentration [4]: 65.47 pg/mL | IFN-γ cytokine concentration [5]: 1854.29 pg/mL | IL-1 cytokine concentration [5]: 69689.2 pg/mL | IL-2 cytokine concentration [5]: 12000 pg/mL | IL-4 cytokine concentration [5]: 235.78 pg/mL | IL-5 cytokine concentration [5]: 173.34 pg/mL | IL-6 cytokine concentration [5]: 2058.24 pg/mL | IL-9 cytokine concentration [5]: 162.4 pg/mL | IL-10 cytokine concentration [5]: 4936.79 pg/mL | IL-12p70 cytokine concentration [5]: 1703.5 pg/mL | IL-13 cytokine concentration [5]: 944.87 pg/mL | IL-17 cytokine concentration [5]: 3116.43 pg/mL | IL-22 cytokine concentration [5]: 24079 pg/mL | TNF-α cytokine concentration [5]: 3600 pg/mL | IFN-γ cytokine concentration [6]: 12070.4 pg/mL | IL-1 cytokine concentration [6]: 594.38 pg/mL | IL-2 cytokine concentration [6]: 3486.84 pg/mL | IL-4 cytokine concentration [6]: 41.83 pg/mL | IL-5 cytokine concentration [6]: 379.39 pg/mL | IL-6 cytokine concentration [6]: 1535.49 pg/mL | IL-9 cytokine concentration [6]: 332.07 pg/mL | IL-10 cytokine concentration [6]: 877.54 pg/mL | IL-12 cytokine concentration [6]: 0 pg/mL | IL-12p70 cytokine concentration [6]: 0 pg/mL | IL-13 cytokine concentration [6]: 1158.74 pg/mL | IL-17 cytokine concentration [6]: 1808.01 pg/mL | IL-22 cytokine concentration [6]: 0 pg/mL | INF-α cytokine concentration [6]: 12070.42 pg/mL | TNF-a cytokine concentration [6]: 3998.01 pg/mL | TNF-α cytokine concentration [6]: 3998.01 pg/mL

H-Phe-Pro-[Aib]-OH [Example 13]
secretion / expression of pro-inflammatory cytokines (supernatant) (activated primary human T-cells): decreased expression | immunomodulatory activity relative to MMF (cells activated with PMA/Ionomycin and IFN-γ, protein and gene level): higher | IL-1 cytokine concentration [2]: 162.75 pg/mL | IL-2 cytokine concentration [2]: 187.16 pg/mL | IL-4 cytokine concentration [2]: 0 pg/mL | IL-5 cytokine concentration [2]: 15.32 pg/mL | IL-6 cytokine concentration [2]: 60.51 pg/mL | IL-9 cytokine concentration [2]: 0 pg/mL | IL-10 cytokine concentration [2]: 0 pg/mL | IL-12p70 cytokine concentration [2]: 0 pg/mL | IL-13 cytokine concentration [2]: 0 pg/mL | IL-17 cytokine concentration [2]: 81.59 pg/mL | IL-22 cytokine concentration [2]: 0 pg/mL | TNF-α cytokine concentration [2]: 0 pg/mL | IL-1 cytokine concentration [4]: 0 pg/mL | IL-2 cytokine concentration [4]: 115.73 pg/mL | IL-4 cytokine concentration [4]: 73.19 pg/mL | IL-5 cytokine concentration [4]: 0 pg/mL | IL-6 cytokine concentration [4]: 113.86 pg/mL | IL-9 cytokine concentration [4]: 10.84 pg/mL | IL-10 cytokine concentration [4]: 147.54 pg/mL | IL-12p70 cytokine concentration [4]: 0 pg/mL | IL-13 cytokine concentration [4]: 0 pg/mL | IL-17 cytokine concentration [4]: 65.17 pg/mL | IL-22 cytokine concentration [4]: 0 pg/mL | INF-α cytokine concentration [4]: 0 pg/mL | TNF-α cytokine concentration [4]: 50.36 pg/mL | IL-1 cytokine concentration [6]: 558.46 pg/mL | IL-2 cytokine concentration [6]: 2092.22 pg/mL | IL-4 cytokine concentration [6]: 0 pg/mL | IL-5 cytokine concentration [6]: 354.06 pg/mL | IL-6 cytokine concentration [6]: 1185.87 pg/mL | IL-9 cytokine concentration [6]: 248.66 pg/mL | IL-10 cytokine concentration [6]: 872.88 pg/mL | IL-12p70 cytokine concentration [6]: 0 pg/mL | IL-13 cytokine concentration [6]: 1081.09 pg/mL | IL-17 cytokine concentration [6]: 1069.51 pg/mL | IL-22 cytokine concentration [6]: 0 pg/mL | INF-α cytokine concentration [6]: 7456.27 pg/mL | TNF-α cytokine concentration [6]: 2706.11 pg/mL

alpha-melanocyte-stimulating hormone [α-MSH, reference compound]
IL-1 cytokine concentration [1]: 229 pg/mL | IL-2 cytokine concentration [1]: 0 pg/mL | IL-4 cytokine concentration [1]: 136.29 pg/mL | IL-5 cytokine concentration [1]: 145.89 pg/mL | IL-6 cytokine concentration [1]: 70.19 pg/mL | IL-9 cytokine concentration [1]: 90.3 pg/mL | IL-10 cytokine concentration [1]: 109.15 pg/mL | IL-12p70 cytokine concentration [1]: 727.17 pg/mL | IL-13 cytokine concentration [1]: 59.46 pg/mL | IL-17 cytokine concentration [1]: 125.8 pg/mL | IL-22 cytokine concentration [1]: 0 pg/mL | TNF-α cytokine concentration [1]: 155.15 pg/mL | IL-1 cytokine concentration [2]: 0 pg/mL | IL-2 cytokine concentration [2]: 0 pg/mL | IL-4 cytokine concentration [2]: 60.49 pg/mL | IL-5 cytokine concentration [2]: 0 pg/mL | IL-6 cytokine concentration [2]: 64.54 pg/mL | IL-9 cytokine concentration [2]: 5.27 pg/mL | IL-10 cytokine concentration [2]: 43.9 pg/mL | IL-12 cytokine concentration [2]: 0 pg/mL | IL-12p70 cytokine concentration [2]: 0 pg/mL | IL-13 cytokine concentration [2]: 0 pg/mL | IL-17 cytokine concentration [2]: 0 pg/mL | IL-22 cytokine concentration [2]: 0 pg/mL | TNF-α cytokine concentration [2]: 18.85 pg/mL | IFN-γ cytokine concentration [3]: 584.13 pg/mL | IL-1 cytokine concentration [3]: 233.71 pg/mL | IL-2 cytokine concentration [3]: 166.83 pg/mL | IL-4 cytokine concentration [3]: 158.58 pg/mL | IL-5 cytokine concentration [3]: 26.63 pg/mL | IL-6 cytokine concentration [3]: 103.97 pg/mL | IL-9 cytokine concentration [3]: 93.72 pg/mL | IL-10 cytokine concentration [3]: 154.89 pg/mL | IL-12p70 cytokine concentration [3]: 100.99 pg/mL | IL-13 cytokine concentration [3]: 74.71 pg/mL | IL-17 cytokine concentration [3]: 123.27 pg/mL | IL-22 cytokine concentration [3]: 2258.05 pg/mL | TNF-α cytokine concentration [3]: 127.96 pg/mL | IFN-γ cytokine concentration [4]: 0 pg/mL | IL-1 cytokine concentration [4]: 0 pg/mL | IL-2 cytokine concentration [4]: 139.68 pg/mL | IL-4 cytokine concentration [4]: 72.42 pg/mL | IL-5 cytokine concentration [4]: 14.37 pg/mL | IL-6 cytokine concentration [4]: 117.88 pg/mL | IL-9 cytokine concentration [4]: 34.99 pg/mL | IL-10 cytokine concentration [4]: 164.01 pg/mL | IL-12 cytokine concentration [4]: 0 pg/mL | IL-12p70 cytokine concentration [4]: 0 pg/mL | IL-13 cytokine concentration [4]: 185.71 pg/mL | IL-17 cytokine concentration [4]: 139.74 pg/mL | IL-22 cytokine concentration [4]: 0 pg/mL | INF-α cytokine concentration [4]: 0 pg/mL | TNF-a cytokine concentration [4]: 59.06 pg/mL | TNF-α cytokine concentration [4]: 59.06 pg/mL | IFN-γ cytokine concentration [5]: 1049.41 pg/mL | IL-1 cytokine concentration [5]: 69689.2 pg/mL | IL-2 cytokine concentration [5]: 12000 pg/mL | IL-4 cytokine concentration [5]: 200.9 pg/mL | IL-5 cytokine concentration [5]: 145.89 pg/mL | IL-6 cytokine concentration [5]: 1542.01 pg/mL | IL-9 cytokine concentration [5]: 187.5 pg/mL | IL-10 cytokine concentration [5]: 4311.06 pg/mL | IL-12p70 cytokine concentration [5]: 1161.04 pg/mL | IL-13 cytokine concentration [5]: 462.62 pg/mL | IL-17 cytokine concentration [5]: 2836.14 pg/mL | IL-22 cytokine concentration [5]: 24400.4 pg/mL | TNF-α cytokine concentration [5]: 3600 pg/mL | IFN-γ cytokine concentration [6]: 10814.4 pg/mL | IL-1 cytokine concentration [6]: 530.55 pg/mL | IL-2 cytokine concentration [6]: 2307.5 pg/mL | IL-4 cytokine concentration [6]: 70.32 pg/mL | IL-5 cytokine concentration [6]: 278.92 pg/mL | IL-6 cytokine concentration [6]: 1241.17 pg/mL | IL-9 cytokine concentration [6]: 264.59 pg/mL | IL-10 cytokine concentration [6]: 977.83 pg/mL | IL-12 cytokine concentration [6]: 0 pg/mL | IL-12p70 cytokine concentration [6]: 0 pg/mL | IL-13 cytokine concentration [6]: 1065.69 pg/mL | IL-17 cytokine concentration [6]: 1660.92 pg/mL | IL-22 cytokine concentration [6]: 0 pg/mL | INF-α cytokine concentration [6]: 10814.35 pg/mL | TNF-a cytokine concentration [6]: 3346.46 pg/mL | TNF-α cytokine concentration [6]: 3346.46 pg/mL
